According to PMC7318006, “Anidulafungin and Micafungin Concentrations in Cerebrospinal Fluid and in Cerebral Cortex” (Antimicrobial Agents and Chemotherapy, 2020):
Like-named read-outs stand apart in the source and are kept apart here. Starred links: 1 amine or outer side, 2 acyl side, 3 side chain; linkers in the order of their positions; H or OH if unused. Positions of bridges follow the written chain, without caps; N, C: chain ends. Non-standard residues stand in square brackets, D forms with d. Residues, ends and D or L forms follow the SMILES beside them. *: point of attachment. hTyr(3S-OH,4S-OH,3'-OSO3H) = N[C@H](C(=O)O)[C@H](O)[C@@H](O)c1ccc(O)c(OS(=O)(=O)O)c1; pTerphenylCO(4''-OnC5H11) = CCCCCOc1ccc(-c2ccc(-c3ccc(C(=O)*)cc3)cc2)cc1; Orn(4R-OH,5R-OH) = O=C([C@H](C[C@@H](O)[C@@H](O)N[*:3])N[*:1])[*:2]; hTyr(3S-OH,4S-OH) = N[C@H](C(=O)O)[C@H](O)[C@@H](O)c1ccc(O)cc1; Pro(3S-OH,4S-Me) = C[C@H]1CN[C@H](C(=O)O)[C@H]1O; X1 = CCCCCOc1ccc(-c2cc(-c3ccc(C(=O)*)cc3)no2)cc1; Gln(3R-OH) = NC(=O)C[C@@H](O)[C@H](N)C(=O)O; Hyp = O=C(O)[C@@H]1C[C@@H](O)CN1

Legend:
[1] = Concentration in arterial plasma of critically ill adults drawn simultaneously with CSF, HPLC-UV; format: in vivo, human; conditions: for AUC(0-t) / half-life / Cmax / Tmax: intravenous; for AUC(0-t): read-out: AUC0–24 in plasma; for half-life: read-out: t1/2 (half-life) in plasma (converted); for Cmax: read-out: Cmax (peak concentration) in plasma; for Tmax: read-out: Tmax (time to Cmax) in plasma
Procedure: CSF was taken during diagnostic lumbar puncture (LP) or via external ventricular drain (EVD) from critically ill adults treated with anidulafungin or micafungin. Simultaneously, we took 2-ml arterial blood samples. CSF and plasma were stored at –80°C.
Anidulafungin and micafungin concentrations were quantified by high-performance liquid chromatography and UV detection (HPLC-UV) as described previously ([5]). Noncompartmental pharmacokinetics was calculated with Kinetica 2000 (InnaPhase Corporation, Champs-sur-Marne, France). The area under the concentration-time curve from 0 to 24 h (AUC0–24) was computed with the log-linear method when the concentration in a trapezoid decreased or with the trapezoidal method when the concentration increased.

[2] = Concentration in autopsy samples of cerebral cortex of deceased patients, HPLC-UV; format: in vivo, human
Procedure: The cerebral cortex of deceased patients who had received anidulafungin or micafungin within their last 30 days of life was sampled during autopsy, which is routinely performed for quality assurance in Austrian hospitals. Anidulafungin and micafungin were extracted from 0.2 g of tissue by addition of 250 μl of acetonitrile and 250 μl of methanol (Sigma-Aldrich, Vienna, Austria), homogenization with a Precellys homogenizer (Bertin Instruments, Montigny-le-Bretonneux, France) at 4,500 rpm (twice for 25 s, 2-s break), and centrifugation for 5 min at 8°C and 4,665 × g. For calibration, we used porcine brain samples spiked with anidulafungin or micafungin and homogenized and proceeded in the same manner. Both echinocandins were quantified by HPLC-UV at 306 nm ([5]). The lower limit of quantification was 0.05 μg/g for anidulafungin and 0.10 μg/g for micafungin. The extraction recovery from brain was ∼40% and ∼60% for anidulafungin and micafungin, respectively.

[3] = Stability in brain tissue at 4°C; format: in vitro ADME, human; conditions: brain tissue at 4°C (storage temperature of the corpses)
Procedure: (§1) In brain specimens, we cannot rule out minor agonal or postmortem changes of anidulafungin and micafungin concentrations, although anidulafungin and micafungin were stable in the brains of deceased patients for at least 96 h. Brain specimens consist of various compartments, e.g., different cells, extracellular matrix, and blood vessels. Anidulafungin and micafungin were not quantified on a cellular level or in different brain areas. Echinocandin extraction from human brain might yield slightly lower recovery than extraction from external standards. In rats, [^3H]caspofungin brain concentrations were ≤0.16 μg eq/g ([17]). In rabbits, micafungin brain concentrations were <0.19 μg/g, and those of anidulafungin were <4.0 μg/g ([18], [19]). In a biopsy sample of a brain abscess, a micafungin concentration of 0.26 μg/g was measured ([20]).

[4] = cumulative dose 200 mg; for Cmax (peak concentration) in CSF: steady state not reached
Candida strains = conditions: pharmacodynamic target, not achieved in CSF of patients 2 and 5; cited from earlier work
Procedure: In some of the CSF and brain specimens, measured anidulafungin and micafungin concentrations were below the MICs reported for relevant Candida species (i.e., 0.008 to 4.0 μg/ml) ([6]). […] However, the relevance of in vitro MIC values for antifungal activity of echinocandins in CSF and in CNS remains to be clarified. In CSF, protein binding of anidulafungin and micafungin is unk ...

[5] = cited from earlier work
Procedure: as §1, with “brain” for “brain concentrations were ≤0.16 μg eq/g ([17]). In rabbits, micafungin brain concentrations were <0.19 μg/g, and those of anidulafungin were <4.0 μg/g ([18], [19]). In a biopsy sample of a brain abscess, a micafungin”, “...” for “of 0.26 μg/g was measured ([20]).”

clinical = conditions: human, in vivo, iv
[6] = cited from earlier work; remark: listed apart in the source
[7] = human, plasma, patient 2, cumulative dose 200 mg, treatment day 1, noncompartmental
[8] = patient 2, external ventricular drainage, treatment day 1, noncompartmental
[9] = human, plasma, patient 5, cumulative dose 200 mg, treatment day 2, noncompartmental
[10] = patient 5, external ventricular drainage, treatment day 2, noncompartmental

CCCCCOc1ccc(-c2ccc(-c3ccc(C(=O)N[C@H]4C[C@@H](O)[C@@H](O)NC(=O)[C@@H]5[C@@H](O)[C@@H](C)CN5C(=O)[C@H]([C@@H](C)O)NC(=O)[C@H]([C@H](O)[C@@H](O)c5ccc(O)cc5)NC(=O)[C@@H]5C[C@@H](O)CN5C(=O)[C@H]([C@@H](C)O)NC4=O)cc3)cc2)cc1 [anidulafungin] ({pTerphenylCO(4''-OnC5H11)}-[Orn(4R-OH,5R-OH)]T[Hyp][hTyr(3S-OH,4S-OH)]T[Pro(3S-OH,4S-Me)]; lactam 1-C)
AUC(0-t) [1, 7]: 29400 ng·h/mL
half-life [1, 7]: 14.7 h
Cmax ([1]; human, plasma, patient 2, cumulative dose 200 mg, treatment day 1, sampling before and 1, 4, 8, 12, 18, 24 h after start of infusion, steady state not reached): 2720 ng/mL
Tmax ([1]; human, plasma, patient 2, cumulative dose 200 mg, treatment day 1): 1 h
level at 0.5 h ([1]; human, plasma, iv, 2500 mg, patient 3, arterial blood simultaneous with lumbar puncture, cumulative dose 2,500 mg, treatment day 24, 0.5 h from start of infusion, steady state, read-out: Plasma concn): 5070 ng/mL
level at 3 h ([1]; human, plasma, iv, patient 1, arterial blood simultaneous with lumbar puncture, cumulative dose 300 mg, treatment day 3, 3.0 h from start of infusion, steady state not reached, read-out: Plasma concn): 3830 ng/mL
Cmin (trough concentration) in plasma ([1]; patient 2, cumulative dose 200 mg, treatment day 1, steady state not reached): 770 ng/mL
tissue level at time at 29 h ([2]; human, cerebral cortex, 1200 mg, patient 10, cumulative dose 1,200 mg, treatment 11 days, 29 h between last administration and death, 21 h between death and sampling, LLOQ 0.05 μg/g, read-out: Concn in cerebral cortex (autopsy)): 1580 ng/g
tissue level at time at 12 h ([2]; human, cerebral cortex, 1500 mg, patient 9, cumulative dose 1,500 mg, treatment 14 days, 12 h between last administration and death, 15 h between death and sampling, LLOQ 0.05 μg/g, read-out: Concn in cerebral cortex (autopsy)): 2340 ng/g
tissue level at time at 313 h ([2]; human, cerebral cortex, 1800 mg, patient 8, cumulative dose 1,800 mg, treatment 17 days, 313 h between last administration and death, 25 h between death and sampling, LLOQ 0.05 μg/g, read-out: Concn in cerebral cortex (autopsy)): 280 ng/g
tissue level at time at 32 h ([2]; human, cerebral cortex, patient 7, cumulative dose 700 mg, treatment 6 days, 32 h between last administration and death, 14 h between death and sampling, LLOQ 0.05 μg/g, read-out: Concn in cerebral cortex (autopsy)): 210 ng/g
Time stable in brain tissue [3]: at least 96 h
Tmax (time to Cmax) in CSF ([4]; patient 2, external ventricular drainage, treatment day 1): 1 h
AUC0–24 in CSF [4, 8]: 2090 ng·h/mL
t1/2 (half-life) in CSF [4, 8]: 7.90 h
Cmax (peak concentration) in CSF ([4]; patient 2, external ventricular drainage, treatment day 1, sampling before and 1, 4, 8, 12, 18, 24 h after start of infusion): 660 ng/mL
Cmin (trough concentration) in CSF ([4]; patient 2, external ventricular drainage, treatment day 1, steady state not reached): 30 ng/mL
Target AUC0–24/MIC ratio suggested (Candida strains): 2,782
Brain concentrations ([5]; rabbits): < 4.0 µg/g
Kp (clinical; 200 mg): 0.07
Kp at 3 h (clinical; 300 mg): 0.01
Kp at 0.5 h (clinical; 2500 mg): < 0.002

CCCCCOc1ccc(-c2cc(-c3ccc(C(=O)N[C@H]4C[C@@H](O)[C@@H](O)NC(=O)[C@@H]5[C@@H](O)[C@@H](C)CN5C(=O)[C@H]([C@H](O)CC(N)=O)NC(=O)[C@H]([C@H](O)[C@@H](O)c5ccc(O)c(OS(=O)(=O)O)c5)NC(=O)[C@@H]5C[C@@H](O)CN5C(=O)[C@H]([C@@H](C)O)NC4=O)cc3)no2)cc1 [micafungin] (X1-[Orn(4R-OH,5R-OH)]T[Hyp][hTyr(3S-OH,4S-OH,3'-OSO3H)][Gln(3R-OH)][Pro(3S-OH,4S-Me)]; lactam 1-C)
AUC(0-t) [1, 9]: 113000 ng·h/mL
half-life [1, 9]: 12.9 h
Cmax ([1]; human, plasma, patient 5, cumulative dose 200 mg, treatment day 2, sampling before and 1, 4, 8, 12, 18, 24 h after start of infusion, steady state not reached): 8700 ng/mL
Tmax ([1]; human, plasma, patient 5, cumulative dose 200 mg, treatment day 2): 1 h
level at 2.5 h ([1]; human, plasma, iv, 1300 mg, patient 6, arterial blood simultaneous with lumbar puncture, cumulative dose 1,300 mg, treatment day 13, 2.5 h from start of infusion, steady state, read-out: Plasma concn): 3510 ng/mL
level at 16 h ([1]; human, plasma, iv, patient 4, arterial blood simultaneous with lumbar puncture, cumulative dose 200 mg, treatment day 2, 16.0 h from start of infusion, steady state not reached, read-out: Plasma concn): 1210 ng/mL
Cmin (trough concentration) in plasma ([1]; patient 5, cumulative dose 200 mg, treatment day 2, steady state not reached): 2160 ng/mL
Time after treatment at which the drug was still measurable in cerebral cortex ([2]; autopsy samples of deceased patients): 10 days
tissue level at time at 712 h ([2]; human, cerebral cortex, 1100 mg, patient 11, cumulative dose 1,100 mg, treatment 19 days, 712 h between last administration and death, 58 h between death and sampling, LLOQ 0.10 μg/g, read-out: Concn in cerebral cortex (autopsy)): < 100 ng/g
tissue level at time at 235 h ([2]; human, cerebral cortex, 4000 mg, patient 16, cumulative dose 4,000 mg, treatment 39 days, 235 h between last administration and death, 29 h between death and sampling, LLOQ 0.10 μg/g, read-out: Concn in cerebral cortex (autopsy)): 190 ng/g
tissue level at time at 111 h ([2]; human, cerebral cortex, intravenous, 1800 mg, patient 13, cumulative dose 1,800 mg, treatment 18 days, 111 h between last administration and death, 38 h between death and sampling, LLOQ 0.10 μg/g, read-out: Concn in cerebral cortex (autopsy)): 180 ng/g
tissue level at time at 230 h ([2]; human, cerebral cortex, intravenous, 5300 mg, patient 12, cumulative dose 5,300 mg, treatment 28 days, 230 h between last administration and death, 85 h between death and sampling, LLOQ 0.10 μg/g, read-out: Concn in cerebral cortex (autopsy)): 1520 ng/g
tissue level at time at 99 h ([2]; human, cerebral cortex, patient 14, cumulative dose 500 mg, treatment 4 days, 25 h between last administration and death, 74 h between death and sampling, LLOQ 0.10 μg/g, read-out: Concn in cerebral cortex (autopsy)): 2880 ng/g
tissue level at time at 324 h ([2]; human, cerebral cortex, patient 15, cumulative dose 300 mg, treatment 3 days, 324 h between last administration and death, 80 h between death and sampling, LLOQ 0.10 μg/g, read-out: Concn in cerebral cortex (autopsy)): < 100 ng/g
Time stable in brain tissue [3]: at least 96 h
Tmax (time to Cmax) in CSF ([4]; patient 5, external ventricular drainage, treatment day 2): 4 h
Cmin (trough concentration) in CSF ([4]; patient 5, external ventricular drainage, treatment day 2, LLOQ 0.01 μg/ml): <10 ng/mL
AUC0–24 in CSF [4, 10]: 2010 ng·h/mL
t1/2 (half-life) in CSF [4, 10]: 13.80 h
Cmax (peak concentration) in CSF ([4]; patient 5, external ventricular drainage, treatment day 2, sampling before and 1, 4, 8, 12, 18, 24 h after start of infusion): 160 ng/mL
Target AUC0–24/MIC ratio suggested (Candida strains): 5,299
Concentration in biopsy sample of a brain abscess [5]: 0.26 µg/g
Brain concentrations ([5]; rabbits): < 0.19 µg/g
Kp (clinical; 200 mg): 0.02
Kp at 16 h (clinical; 200 mg): 0.08
level at 16 h (clinical; 200 mg): 90 ng/mL
Kp at 2.5 h (clinical; 1300 mg): 0.03
CSF concentration ([6]; cerebral aspergillosis, 2-fold maximum dose, 300 mg/day): < 0.02 µg/mL

Caspofungin
Detection in CSF ([6]; human, in vivo): undetectable
Detection in CSF ([6]; in 9 of 11 CSF samples from children with hematological malignancies): undetectable

[^3H]caspofungin
Brain concentrations ([5]; rats): ≤ 0.16 μg eq/g
